For one assay, the system named is NASH. The assay is described as follows: L-DOPA plus pantethine with or without curcumin in high fat high fructose diet mice, Study 2 (Example 4). It is filed as in vivo. The conditions noted are these: vehicle value assigned 1.0 (maximum score); 3 weeks treatment. The source says: After 3 weeks on the test diet, animals were sacrificed for analyses of body weight, body fat, blood glucose, and liver physiology.

For another assay, the system named is NASH Mice. The assay is described as follows: Treatment of NASH mice (high fat high fructose diet) with bromocriptine citrate plus pantethine with or without curcumin, Study 1. To be noted: vehicle value assigned 1.0 (maximum score); 6 weeks treatment. It is filed as in vivo. How it is done: The curcumin-phosphatidylcholine mixture is stirred until clear while being heated to between 50° C. to 60C. Optionally, add up to 10 ml of water and stir until solution is homogeneous)) (100 mg/kg). […] After 6 weeks on the test diet and treatment, animals were sacrificed for analyses of body weight, body fat, blood glucose, and liver physiology.

Consider `N[C@@H](Cc1ccc(O)c(O)c1)C(=O)O` [L-DOPA, 3,4-dihydroxyphenylalanine], for which, in the assay on NASH, the “NASH propensity score (liver weight x body weight x body fat x blood glucose level)” value is on record as 0.61.

As for `CC(C)C[C@H]1C(=O)N2CCC[C@H]2[C@]2(O)O[C@](NC(=O)[C@@H]3C=C4c5cccc6[nH]c(Br)c(c56)C[C@H]4N(C)C3)(C(C)C)C(=O)N12` [bromocriptine, 2-bromo-α-ergocriptine], in the assay with NASH Mice, the “NASH propensity scale score (liver weight x body weight x body fat x liver triglyceride content x blood glucose level)” value is listed as 0.46.

Source of the values: patent US20250375406A1, “TREATMENT OF NON-ALCOHOLIC STEATOHEPATITIS AND NON-ALCOHOLIC FATTY LIVER DISEASE” (VEROSCIENCE LLC, priority 2022, published 2025).
